Assay results as given in patent US4076725A, “Derivatives of streptovaricin ansamycins” (University of Illinois Foundation, priority 1976, dated 1978).
Converted amounts (≈) assume the structure as drawn.

What was measured:
[1] = system: reverse transcriptase (RNA-directed DNA polymerase); assay: Reverse transcriptase (RNA-directed DNA polymerase) inhibition; type: biochemical; details: concentration not given
From the text: The assay and work-up conditions for reverse transcriptase analysis were essentially those described by Brockman, et al., (Nature, 230, 249 (1971)), except for eliminating the phosphate from the washing solution (10% trichloroacetic acid).

[2] = system: AKR cells; assay: AKR growth inhibition (AKR cells in culture); type: cell-based; details: 37° C, 3 days, concentration not given
Procedure: The assay for inhibition of AKR cells in culture was as follows. Four ml. of cells (ca. 1×10^4 cells/ml.) were pipetted into sterilized plastic culture tubes with screw caps (16×125 mm.; Falcon Plastics, Oxnard, California). The experiment was initiated by adding 1.0 ml. of medium or drug at different concentrations and incubating at 37° C for 3 days. Cell growth was determined twice a day for 3 days. The percent inhibition was calculated from the controls (no drug).

[3] = system: B. subtilis; assay: B. subtilis bacterial inhibition (paper disc, agar plate); details: Bacillus subtilis, read-out: Zone (mm.) inhibition
Procedure: The assay for B. subtilis bacterial inhibition was obtained on plates with B. subtilis UC 564 spores in agar with the following composition per liter:
After autoclaving, 10 ml. of 20% glucose was added. The seeding rate was approximately 10^9 spores per liter. Test solutions were applied to 1/2-inch paper discs (Schleicher & Schuell 740E) with 0.08 ml. per disc.

[4] = biological target: E. coli RNA polymerase (Escherichia coli, UniProt P0A8V2); assay: Bacterial RNA polymerase inhibition; type: biochemical
E. coli RNA polymerase, sequence (P0A8V2 whole entry): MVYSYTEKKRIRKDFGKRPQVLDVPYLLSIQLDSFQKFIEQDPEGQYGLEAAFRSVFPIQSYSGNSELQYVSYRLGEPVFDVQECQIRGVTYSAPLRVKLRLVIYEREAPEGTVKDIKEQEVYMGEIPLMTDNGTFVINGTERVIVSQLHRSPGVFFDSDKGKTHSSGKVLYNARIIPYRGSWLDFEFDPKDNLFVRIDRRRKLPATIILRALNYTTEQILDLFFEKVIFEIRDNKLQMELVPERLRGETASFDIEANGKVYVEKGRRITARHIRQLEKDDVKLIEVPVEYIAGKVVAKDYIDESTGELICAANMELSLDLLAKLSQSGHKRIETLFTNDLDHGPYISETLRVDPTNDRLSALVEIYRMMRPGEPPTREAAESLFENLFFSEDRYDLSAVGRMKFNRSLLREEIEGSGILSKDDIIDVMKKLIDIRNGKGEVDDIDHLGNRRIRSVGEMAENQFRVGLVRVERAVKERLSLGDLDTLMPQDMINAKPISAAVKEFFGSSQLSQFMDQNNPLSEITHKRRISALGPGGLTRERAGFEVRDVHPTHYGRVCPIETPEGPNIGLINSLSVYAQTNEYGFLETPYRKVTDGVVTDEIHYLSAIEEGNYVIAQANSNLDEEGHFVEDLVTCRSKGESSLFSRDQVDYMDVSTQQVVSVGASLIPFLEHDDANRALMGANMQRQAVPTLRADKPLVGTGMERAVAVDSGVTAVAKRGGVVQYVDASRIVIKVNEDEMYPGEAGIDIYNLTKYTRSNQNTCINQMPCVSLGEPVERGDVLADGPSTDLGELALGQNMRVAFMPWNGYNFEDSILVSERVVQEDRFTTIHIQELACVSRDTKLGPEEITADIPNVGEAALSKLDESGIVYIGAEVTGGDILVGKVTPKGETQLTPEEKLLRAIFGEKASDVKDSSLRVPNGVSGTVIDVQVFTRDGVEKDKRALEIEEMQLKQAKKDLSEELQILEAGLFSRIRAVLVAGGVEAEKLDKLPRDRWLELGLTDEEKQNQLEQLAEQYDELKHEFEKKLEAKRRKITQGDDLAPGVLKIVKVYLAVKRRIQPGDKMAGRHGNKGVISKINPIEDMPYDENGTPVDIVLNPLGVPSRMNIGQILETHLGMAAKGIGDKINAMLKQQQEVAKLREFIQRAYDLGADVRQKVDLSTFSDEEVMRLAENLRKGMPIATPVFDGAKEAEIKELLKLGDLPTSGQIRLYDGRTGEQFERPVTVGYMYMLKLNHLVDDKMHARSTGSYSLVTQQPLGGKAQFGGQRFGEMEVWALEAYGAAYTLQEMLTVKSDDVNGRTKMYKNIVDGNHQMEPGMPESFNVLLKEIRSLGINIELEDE
E. coli RNA polymerase, sequence (P0A8T7 whole entry partner): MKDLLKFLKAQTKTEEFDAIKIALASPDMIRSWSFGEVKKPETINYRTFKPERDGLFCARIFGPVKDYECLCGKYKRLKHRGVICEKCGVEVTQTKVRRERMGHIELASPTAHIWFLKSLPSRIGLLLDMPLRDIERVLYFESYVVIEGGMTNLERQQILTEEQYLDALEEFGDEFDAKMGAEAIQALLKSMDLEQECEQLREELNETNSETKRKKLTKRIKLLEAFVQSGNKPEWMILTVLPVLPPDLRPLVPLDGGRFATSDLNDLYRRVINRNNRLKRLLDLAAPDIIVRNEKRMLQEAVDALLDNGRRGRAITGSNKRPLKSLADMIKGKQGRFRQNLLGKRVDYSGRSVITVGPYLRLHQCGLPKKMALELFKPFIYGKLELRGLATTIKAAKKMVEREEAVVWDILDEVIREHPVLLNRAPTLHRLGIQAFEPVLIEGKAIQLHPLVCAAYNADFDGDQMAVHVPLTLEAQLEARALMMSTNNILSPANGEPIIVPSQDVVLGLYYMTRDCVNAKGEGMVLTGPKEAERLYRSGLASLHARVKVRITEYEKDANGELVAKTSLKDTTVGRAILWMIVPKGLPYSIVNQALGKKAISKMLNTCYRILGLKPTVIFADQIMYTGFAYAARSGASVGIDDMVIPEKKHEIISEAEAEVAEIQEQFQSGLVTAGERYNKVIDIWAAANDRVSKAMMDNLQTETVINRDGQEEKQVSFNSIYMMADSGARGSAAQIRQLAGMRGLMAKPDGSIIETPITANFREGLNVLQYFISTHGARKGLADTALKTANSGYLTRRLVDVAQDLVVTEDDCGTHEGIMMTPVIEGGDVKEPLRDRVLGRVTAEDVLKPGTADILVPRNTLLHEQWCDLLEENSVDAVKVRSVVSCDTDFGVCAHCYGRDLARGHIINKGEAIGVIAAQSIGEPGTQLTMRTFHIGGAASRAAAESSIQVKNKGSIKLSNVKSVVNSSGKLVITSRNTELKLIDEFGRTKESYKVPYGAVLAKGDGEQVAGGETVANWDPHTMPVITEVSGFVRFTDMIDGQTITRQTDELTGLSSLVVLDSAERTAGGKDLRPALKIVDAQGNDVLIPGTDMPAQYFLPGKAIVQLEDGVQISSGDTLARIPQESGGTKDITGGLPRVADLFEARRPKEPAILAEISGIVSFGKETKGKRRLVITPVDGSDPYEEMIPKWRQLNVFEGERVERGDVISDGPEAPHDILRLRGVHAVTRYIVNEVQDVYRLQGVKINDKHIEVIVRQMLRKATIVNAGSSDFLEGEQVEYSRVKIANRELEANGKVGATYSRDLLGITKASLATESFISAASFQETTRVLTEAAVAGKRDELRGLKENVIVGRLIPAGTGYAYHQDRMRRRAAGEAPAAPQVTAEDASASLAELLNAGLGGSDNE
E. coli RNA polymerase, sequence (P0A7Z4 whole entry partner): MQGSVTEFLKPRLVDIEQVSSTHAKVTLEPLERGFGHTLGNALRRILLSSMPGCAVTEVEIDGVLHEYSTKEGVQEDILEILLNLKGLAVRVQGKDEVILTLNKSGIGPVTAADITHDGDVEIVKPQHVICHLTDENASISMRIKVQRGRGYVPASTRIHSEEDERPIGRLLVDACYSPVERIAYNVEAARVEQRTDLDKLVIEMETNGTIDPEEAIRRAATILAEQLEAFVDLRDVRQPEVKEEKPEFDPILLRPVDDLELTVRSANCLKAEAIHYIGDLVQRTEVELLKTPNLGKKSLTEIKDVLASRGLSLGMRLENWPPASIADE
E. coli RNA polymerase, sequence (P0A800 2-91 partner limits assumed): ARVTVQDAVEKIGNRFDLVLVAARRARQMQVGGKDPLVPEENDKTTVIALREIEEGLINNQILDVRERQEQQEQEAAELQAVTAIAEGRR
Procedure: The assay for bacterial RNA polymerase followed the procedure of Reusser (J. Bacterial., 105, 580 (1971)). Assay mixtures were prepared containing in a total volume of 0.25 ml.: Tris-hydrochloride buffer, pH 7.9, 5 μmoles; MgCl2, 1 μmole; mercaptoethanol, 3 μmoles; MnCl2, 0.25 μmole; guanosine triphosphate, cytidine triphosphate, uridine triphosphate, 0.1 μmole each; adenosine triphosphate 8-14C, 0.1 μmole containing 0.05 μCi; dAT, 0.2 units; polymerase, ~35 μg. The reaction mixtures were incubated at 30° C for 15 min.

[5] = system: S. lutea; assay: S. lutea bacterial inhibition (MIC, broth dilution); type: cell-based; details: Micrococcus luteus; 37°, 16-18 hours
Procedure: The assay for S. lutea inhibition was as follows. Water-soluble preparations were dissolved in brain heart infusion broth (Difco) to 1 mg./ml. Water-insoluble preparations were dissolved (or suspended) in dimethylformamide to 10 mg./ml. and diluted with brain heart broth to 1 mg./ml. Two-fold serial dilutions were made with broth starting with 1 mg./ml. with final volumes of 01. ml. per dilution. Overnight bacterial cultures were diluted 1:20,000 with brain heart and 0.1 ml. of diluted culture was added to each dilution of antibiotic (final total volume was 0.2 ml.). This was all done in plastic microtest plates (Microtest II Tissue Culture Plate, Bioquest). The plates were incubated at 37° for 16-18 hours and the minimum inhibitory concentrations (MIC) were recorded as the smallest concentration in which no visible growth occurred.

[6] = system: DNA-directed DNA polymerase; assay: DNA-directed DNA polymerase inhibition; type: biochemical; details: concentration not given
Procedure: The assay and work-up conditions for DNA polymerase were essentially those described by Magee (Virology, 17, 604 (1962)). The reaction mixture contained […]: potassium phosphate (pH 7.4), 15; EDTA, 2; ATP, 0.05; Mg^++, 2.5; triphosphates of CdR, deoxyguanosine, and AdR, 0.01 each; TdR triphosphate-^3 H, 0.01 (100 mCi/mmol.); DNase-treated E. coli DNA, 0.2 mg.; and cell sonicate, 0.2 mg. protein in a total volume of 0.5 ml. After incubation at 37° C for up to 60 minutes with continual gentle shaking, the reactions were stopped by the addition of carrier DNA […] and PCA (to 0.5 N) containing 2% Celite. The pellet was washed with PCA, dissolved in 1 N NaOH, reprecipitated and washed with PCA, extracted with 0.15 ml. 0.5 N PCA (70°) for 20 minutes, and counted in 12 ml. of Diotol.

| Compound | % inhibition [1] [%] | % inhibition [2] [%] | zone of inhibition at 250 µM [3] [mm] | % inhibition ([4]; 0.1 μmole/ml.) [%] | MIC [5] [µg/mL] | % inhibition [6] [%] | % inhibition ([4]; 0.01 μmole/ml. (Streptovaricin C)) [%] |
| --- | --- | --- | --- | --- | --- | --- | --- |
| CC(=O)C=C(C)C1=C2C(=C(C)C(=O)c3c(O)c(NC(=O)C(C)=CC=CC(C)(O)C4OC(=O)C5C(O)C(C)C(O)OC5C4C)c(C)c(OC(C)=O)c32)OCO1 (centres unmarked) [Streptoval F] | 8.3 |  |  |  |  |  |  |
| COC(=O)C(C(O)C(C)C=O)C(OC(C)=O)C(C)C(O)C(C)(O)C=C(C)C1=C2C(=C(C)C(=O)c3c(O)c(NC(=O)C(C)=CC=CC(C)=O)c(C)c(OC(C)=O)c32)OCO1 (centres unmarked) [Isostreptoval A] | 7.8 | 10.7 | 16 | 21 | 80 (≈ 96.9 µM) |  |  |
| COC(=O)C1C(O)C(C)C(O)OC1C(C)C(O)C(C)C=CC=C(C)C(=O)Nc1c(C)c(OC(C)=O)c2c(c1O)C(=O)C(C)=C1OCOC(C(C)=CC(C)=O)=C12 (centres unmarked) [Streptoval C] | 84.0 | 2.1 | 0 |  |  | 9.2 |  |
| COC(=O)C(C(O)C(C)C=O)C(O)C(C)C(O)C(C)(O)C=C(C)C1=C2C(=C(C)C(=O)c3c(O)c(NC(=O)C(C)=CC=CC(C)=O)c(C)c(OC(C)=O)c32)OCO1 (centres unmarked) [Isostreptoval G] |  |  |  | 52 |  |  |  |
| COC(=O)C1C(OC(C)=O)C(C)C(OC(C)=O)C(C)C=CC=C(C)C(=O)Nc2c(C)c(OC(C)=O)c3c(c2O)C(=O)C(C)=C2OCOC(=C23)C(C)=CC(C)(O)C(OC(C)=O)C(C)C1OC(C)=O (centres unmarked) [Streptovaricin C Tetra-acetate] | 80.0 |  |  |  |  |  |  |
| COC(=O)C(C(OC(C)=O)C(C)C=O)C(OC(C)=O)C(C)C(OC(C)=O)C(C)C=CC=C(C)C(=O)Nc1c(C)c(OC(C)=O)c2c(c1O)C(=O)C(C)=C1OCOC(C(C)=CC(C)=O)=C12 (centres unmarked) [Streptoval C Triacetate-B] | 97.3 |  |  |  |  |  |  |
| COC(=O)C1C(O)C(C)C(O)C(C)C=CC=C(C)C(=O)Nc2c(C)c(OC(C)=O)c3c(c2O)C(=O)C(C)=C2OCOC(=C23)C(C)=CC(C)(O)C(O)C(C)C1O (centres unmarked) [Streptovaricin C, reference compound] | 47.9 | 8.9 | 22 |  |  | 0 | 66 |
| COC(=O)C1C(O)C(C)C(O)OC1C(C)C(=O)C(C)C=CC=C(C)C(=O)Nc1c(C)c(OC(C)=O)c2c(c1O)C(=O)C(C)=C1OCOC(C(C)=CC(C)=O)=C12 (centres unmarked) [Streptoval E] | 95.7 |  | 0 | 7 | 75 (≈ 97.9 µM) |  |  |
| COC(=O)C1C(OC(C)=O)C(C)C(OC(C)=O)C(C)C=CC=C(C)C(=O)Nc2c(C)c(OC(C)=O)c3c(c2O)C(=O)C(C)=C2OCOC(=C23)C(C)=CC(C)(O)C(O)C(C)C1OC(C)=O (centres unmarked) [Streptovaricin C Triacetate] | 79.0 |  |  |  |  |  |  |
| COC(=O)C1C(OC(C)=O)C(C)C(O)OC1C(C)C(O)C(C)(O)C=CC=C(C)C(=O)Nc1c(C)c(OC(C)=O)c2c(c1O)C(=O)C(C)=C1OCOC(C(C)=CC(C)=O)=C12 (centres unmarked) [Streptoval A] | 100.0 |  | 17 | 35 | 80 (≈ 96.9 µM) |  |  |
| CC(=O)C=C(C)C1=C2C(=C(C)C(=O)c3c(O)c(NC(=O)C(C)=O)c(C)c(OC(C)=O)c32)OCO1 [Streptovarone] | 59.4 | 0.4 | 0 | 0 |  | 12.2 |  |
| COC(=O)C1C(OC(C)=O)C(C)C(OC(C)=O)C(C)(O)C=CC=C(C)C(=O)Nc2c(C)c(OC(C)=O)c3c(c2O)C(=O)C(C)=C2OCOC(=C23)C(C)=CC(C)(O)C(OC(C)=O)C(C)C1OC(C)=O (centres unmarked) [Streptovaricin A Triacetate] | 76.0 |  |  |  |  |  |  |
| COC(=O)C1C(OC(C)=O)C(C)C(OC(C)=O)OC1C(C)C(OC(C)=O)C(C)C=CC=C(C)C(=O)Nc1c(C)c(OC(C)=O)c2c(c1O)C(=O)C(C)=C1OCOC(C(C)=CC(C)=O)=C12 (centres unmarked) [Streptoval C Triacetate-A] | 86.2 |  |  |  |  |  |  |
| COC(=O)C1C(OC(C)=O)C(C)C(O)OC1C(C)C(O)C(C)C=CC=C(C)C(=O)Nc1c(C)c(OC(C)=O)c2c(c1O)C(=O)C(C)=C1OCOC(C(C)=CC(C)=O)=C12 (centres unmarked) [Streptoval B] | 99.0 |  |  |  |  |  |  |
| CC(=O)C=CC=C(C)C(=O)Nc1c(C)c(OC(C)=O)c2c(c1O)C(=O)C(C)=C1OCOC(C(C)=CC(C)=O)=C12 [Prestreptovarone] | 60.1 |  |  | 0 |  | 35.4 |  |
